From paper PMC8896685 (PLoS ONE, 2022) come the findings set out here.

In general, EC50 refers to the concentration that produces a half-maximal response. For orientation: IC50 means the concentration that inhibits the measured activity by half. The low end stands for inhibition by little substance, the high end for a need for much substance.

The structures appear in SMILES notation. Numbered stars: 1 amine (or outer) side, 2 acyl side, 3 side chain; on linkers, the order of the positions; unused ones are H or OH. Square brackets hold non-standard residues; d marks the D form. Side chains are listed from the residue outwards. Peptide text beside a SMILES is read from it. * marks the point of attachment. C18 diacid = O=C(O)CCCCCCCCCCCCCCCCC(=O)*; γGlu = O=C(O)[C@H](CCC(=O)[*:2])N[*:1]; Ac4c = NC1(C(=O)O)CCC1; AEEA = NCCOCCOCC(=O)O

Experiment [1] addresses T1, Mouse GLP-1R (Mus musculus, UniProt O35659).
T1 construct: a plasmid encoding either the glucagon receptor or the GLP-1 receptor from the relevant species; expressed in transfected cells
T1 sequence (O35659 22-463): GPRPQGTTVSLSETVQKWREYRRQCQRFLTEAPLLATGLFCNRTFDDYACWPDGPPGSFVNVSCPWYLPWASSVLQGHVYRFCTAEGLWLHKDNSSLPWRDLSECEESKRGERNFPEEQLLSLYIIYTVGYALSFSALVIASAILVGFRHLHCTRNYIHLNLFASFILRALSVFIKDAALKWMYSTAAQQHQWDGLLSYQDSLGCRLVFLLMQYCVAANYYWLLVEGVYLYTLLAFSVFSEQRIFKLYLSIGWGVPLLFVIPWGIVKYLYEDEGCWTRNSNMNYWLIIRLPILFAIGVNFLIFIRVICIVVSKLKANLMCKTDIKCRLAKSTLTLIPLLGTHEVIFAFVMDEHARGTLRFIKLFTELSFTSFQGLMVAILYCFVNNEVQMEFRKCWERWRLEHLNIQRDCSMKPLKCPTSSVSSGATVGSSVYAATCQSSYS
Description: Receptor potency, CRE-luciferase functional assay in BHK cells. Format: cell-based. As to conditions: Mouse receptors, whole BHK cells, 3 h 37°C, value (95% CI). As for the experimental part:
(§1) The binding assay was performed on cell membranes in the presence of 1% (v/v) species-specific heparin-treated pooled plasma (Bioreclamation IVT, Westbury, NY) diluted in assay buffer (50 mM HEPES supplemented with 5 mM EGTA, 5 mM MgCl2, and 0.005% (v/v) Tween 20, pH7.4). […] Cells stably expressing an individual receptor of interest were grown at 5% CO2, 37°C in DMEM (supplemented with 10% FCS, 0.5 mg/ml G418 and 0.3 mg/ml hygromycin). Membrane preparations were made from cells harvested at approximately 80% confluence, washed and homogenized in 20 mM HEPES with 0.1 mM EDTA, pH 7.4. Protein concentration was determined, and the membranes were stored at -80°C until use. The membrane binding assay was performed in a 96-well OptiPlate (PerkinElmer) in a total volume of 200 μl. Test compounds were dissolved in 80% DMSO and further diluted in assay buffer. 50 μl of diluted plasma was added to the assay plate wells followed by addition of test compounds (25 μl), cell membranes (50 μl, 0.06 mg/ml), SPA beads (20 mg/ml in assay buffer) and radioligand (60,000 cpm/well, corresponding to 0.06 nM; 2200 Ci/mmol. Each assay plate was incubated for 2 h at 30°C, centrifuged at 1500 rpm for 10 minutes and counted in a TopCount NXT instrument (PerkinElmer).
(§2) Functional assays were performed on whole cells in the absence or presence of 100% species-specific heparin-treated pooled plasma (Bioreclamation IVT). […] The cells were cultured with DMEM (supplemented with GlutaMAX, 10% FBS, 0.5 mg/ml G418 and 0.3 mg/ml hygromycin) at 5% CO2 and 37°C. At approximately 80–90% confluence, cells were washed with PBS and harvested with Versene (Life Technologies, Carlsbad, CA). The cells were counted and plated into 96-well microtiter plates coated with poly-D-Lys (Corning BioCoat) with 5,000 cells/well and thereafter incubated overnight in growth media. The next day the media was changed to assay buffer (DMEM without phenol red, supplemented with GlutaMAX, 10 mM HEPES, 1% ovalbumin and 0.1% Pluronic F-68) or to 100% plasma. In the absence of plasma, compounds were diluted in assay buffer. In assays tested with plasma, compounds were diluted in pure plasma. Buffer was removed from the plates and 50 μl of test compound dilutions was added to the plates followed by 50 μl of plasma or the same buffer used for compound dilution. The assay plates were incubated for 3 h in a 5% CO2 incubator at 37°C. The plates were then transferred to room temperature for 15 min and 100 μl Steadylite Plus reagent (PerkinElmer) was added to each well. The plates were shaken for 30 min at room temperature while protected from light after which luminescence was measured.
(§3) For the receptor binding assays, logIC50 values were calculated using non-linear regression analysis. The error estimation was reported as the 95% confidence interval. […] The calculations were performed in GraphPad Prism 6.4 (GraphPad, San Diego, CA) and error estimation was expressed as the 95% confidence interval. […] Averages, error estimation, ratios and plasma shifts were all calculated on logIC50 or logEC50 values and transformed to the anti-log values for reporting purposes.

In a further experiment the target is T2, Mouse GCGR (Mus musculus, UniProt Q61606).
T2 construct: a plasmid encoding either the glucagon receptor or the GLP-1 receptor from the relevant species; expressed in transfected cells
T2 sequence (Q61606 27-485): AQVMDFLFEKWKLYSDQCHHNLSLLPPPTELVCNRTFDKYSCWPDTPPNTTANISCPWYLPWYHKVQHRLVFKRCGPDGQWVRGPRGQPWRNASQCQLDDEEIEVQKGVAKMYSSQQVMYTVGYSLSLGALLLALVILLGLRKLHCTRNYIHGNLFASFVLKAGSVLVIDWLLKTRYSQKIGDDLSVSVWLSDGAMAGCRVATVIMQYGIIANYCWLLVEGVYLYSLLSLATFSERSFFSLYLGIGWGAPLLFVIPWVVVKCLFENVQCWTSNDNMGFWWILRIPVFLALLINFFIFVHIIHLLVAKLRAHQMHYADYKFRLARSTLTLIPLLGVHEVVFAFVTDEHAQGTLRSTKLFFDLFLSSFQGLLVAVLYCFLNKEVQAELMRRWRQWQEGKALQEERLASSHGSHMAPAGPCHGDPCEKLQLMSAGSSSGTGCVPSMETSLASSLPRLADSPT
The description is as above. Format: cell-based. As to conditions: GCGR EC50, pM (95% CI) 100% plasma, Mouse receptors, whole BHK cells, 100% species-specific plasma, 3 h 37°C, value (95% CI). As to the method: as §1, §2, §3

A further experiment deals with T3, Human GCGR (Homo sapiens, UniProt P47871).
T3 construct: a plasmid encoding either the glucagon receptor or the GLP-1 receptor from the relevant species; expressed in transfected cells
T3 sequence (P47871 26-477): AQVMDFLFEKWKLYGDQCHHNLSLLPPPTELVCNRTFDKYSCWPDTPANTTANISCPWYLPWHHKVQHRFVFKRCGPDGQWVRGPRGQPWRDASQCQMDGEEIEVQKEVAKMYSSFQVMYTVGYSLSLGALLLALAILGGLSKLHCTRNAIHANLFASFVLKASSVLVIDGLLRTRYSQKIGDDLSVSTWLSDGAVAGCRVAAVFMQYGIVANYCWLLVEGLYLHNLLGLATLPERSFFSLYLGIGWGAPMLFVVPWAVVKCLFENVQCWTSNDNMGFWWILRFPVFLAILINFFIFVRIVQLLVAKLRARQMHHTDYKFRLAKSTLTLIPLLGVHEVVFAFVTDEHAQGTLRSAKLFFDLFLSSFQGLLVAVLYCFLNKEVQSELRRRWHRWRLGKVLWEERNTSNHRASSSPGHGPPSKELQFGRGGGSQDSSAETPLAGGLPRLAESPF
Description: Receptor binding, SPA competitive binding assay. To be noted: SPA competitive binding on BHK cell membranes, [125I]-glucagon tracer, 1% species specific plasma, 2 h 30°C; value (95% CI). As to the method:
as §1, §3

Experiment [2] concerns the target T1, Mouse GLP-1R. Description: Receptor binding, SPA competitive binding assay. As to conditions: SPA competitive binding on BHK cell membranes, [125I]-GLP-1(7–36)-NH2 tracer, 1% species specific plasma, 2 h 30°C; value (95% CI). As for the experimental part:
as §1, §3

The next experiment deals with T4, Rat GLP-1R (Rattus norvegicus, UniProt P32301).
T4 construct: a plasmid encoding either the glucagon receptor or the GLP-1 receptor from the relevant species; expressed in transfected cells
T4 sequence (P32301 22-463): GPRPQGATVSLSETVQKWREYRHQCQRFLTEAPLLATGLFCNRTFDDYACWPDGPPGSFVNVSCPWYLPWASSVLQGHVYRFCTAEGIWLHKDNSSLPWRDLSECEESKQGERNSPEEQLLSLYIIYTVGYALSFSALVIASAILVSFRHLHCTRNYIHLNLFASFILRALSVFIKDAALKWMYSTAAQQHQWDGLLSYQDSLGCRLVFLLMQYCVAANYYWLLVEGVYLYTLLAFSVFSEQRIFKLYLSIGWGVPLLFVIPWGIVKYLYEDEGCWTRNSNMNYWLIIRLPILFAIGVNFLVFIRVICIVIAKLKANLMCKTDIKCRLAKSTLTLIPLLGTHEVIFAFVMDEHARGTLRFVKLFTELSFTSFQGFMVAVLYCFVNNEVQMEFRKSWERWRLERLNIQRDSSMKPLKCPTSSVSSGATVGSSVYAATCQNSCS
The experiment in a line: Receptor binding, SPA competitive binding assay. To be noted: SPA competitive binding on BHK cell membranes, [125I]-GLP-1(7–36)-NH2 tracer, 1% species specific plasma, 2 h 30°C; value (95% CI). As for the experimental part: as §1, §3

For another experiment, the target named is Human GLP-1R (Homo sapiens, UniProt P43220). The experiment in a line: Receptor binding, SPA competitive binding assay. To be noted: SPA competitive binding on BHK cell membranes, [125I]-GLP-1(7–36)-NH2 tracer, 1% species specific plasma, 2 h 30°C; value (95% CI). As for the experimental part:
as §1, §3

A further experiment deals with T5, Rat GCGR (Rattus norvegicus, UniProt P30082).
T5 construct: a plasmid encoding either the glucagon receptor or the GLP-1 receptor from the relevant species; expressed in transfected cells
T5 sequence (P30082 27-485): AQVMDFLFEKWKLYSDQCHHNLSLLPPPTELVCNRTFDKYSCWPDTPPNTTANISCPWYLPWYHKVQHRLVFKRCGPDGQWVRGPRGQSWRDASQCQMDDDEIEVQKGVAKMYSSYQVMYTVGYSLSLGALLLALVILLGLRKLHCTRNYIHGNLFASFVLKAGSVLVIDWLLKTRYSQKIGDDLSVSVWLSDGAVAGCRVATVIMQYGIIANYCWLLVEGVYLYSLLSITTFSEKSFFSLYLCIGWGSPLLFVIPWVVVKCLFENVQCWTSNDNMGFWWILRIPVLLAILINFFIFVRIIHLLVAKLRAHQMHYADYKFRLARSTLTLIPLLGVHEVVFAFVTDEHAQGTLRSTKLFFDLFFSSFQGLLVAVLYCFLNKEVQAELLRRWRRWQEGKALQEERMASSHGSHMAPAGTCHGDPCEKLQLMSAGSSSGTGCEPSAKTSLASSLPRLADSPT
Description: Receptor binding, SPA competitive binding assay. As to conditions: SPA competitive binding on BHK cell membranes, [125I]-glucagon tracer, 1% species specific plasma, 2 h 30°C; value (95% CI). As for the experimental part: as §1, §3

A further experiment has as its system DIO mice. Description: Subchronic effect on glucose tolerance in DIO mice (IPGTT at steady state). It counts as in vivo, mouse. To be noted: after 3 weeks daily s.c. dosing, Cmax (5 h post dosing), p<0.001.

Sequence of Human GLP-1R (P43220 24-463): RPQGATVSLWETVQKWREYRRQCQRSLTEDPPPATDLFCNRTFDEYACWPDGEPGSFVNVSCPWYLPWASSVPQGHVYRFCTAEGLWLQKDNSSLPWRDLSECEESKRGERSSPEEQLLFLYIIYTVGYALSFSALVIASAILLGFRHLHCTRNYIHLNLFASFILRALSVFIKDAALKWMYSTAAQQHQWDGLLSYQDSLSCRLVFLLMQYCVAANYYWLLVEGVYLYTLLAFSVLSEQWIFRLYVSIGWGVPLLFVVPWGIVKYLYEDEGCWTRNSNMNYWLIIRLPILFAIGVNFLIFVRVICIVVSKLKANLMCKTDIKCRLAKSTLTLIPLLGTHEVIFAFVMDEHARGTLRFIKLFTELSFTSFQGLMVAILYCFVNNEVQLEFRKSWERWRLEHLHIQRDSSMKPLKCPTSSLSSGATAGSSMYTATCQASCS

On to `CC(C)C[C@H](NC(=O)[C@H](CC(=O)O)NC(=O)[C@H](CC(C)C)NC(=O)[C@H](Cc1ccc(O)cc1)NC(=O)[C@H](CCCCN)NC(=O)[C@H](CO)NC(=O)[C@H](CC(C)C)NC(=O)[C@H](CC(=O)O)NC(=O)[C@H](CO)NC(=O)[C@@H](NC(=O)[C@H](Cc1ccccc1)NC(=O)[C@@H](NC(=O)CNC(=O)[C@H](CCC(N)=O)NC(=O)C1(NC(=O)[C@@H](N)Cc2c[nH]cn2)CCC1)[C@@H](C)O)[C@@H](C)O)C(=O)N[C@@H](CCCNC(=N)N)C(=O)N[C@@H](CCCNC(=N)N)C(=O)N[C@@H](C)C(=O)N[C@@H](CCCNC(=N)N)C(=O)N[C@@H](CC(=O)O)C(=O)N[C@@H](Cc1ccccc1)C(=O)N[C@H](C(=O)N[C@@H](CCC(N)=O)C(=O)N[C@@H](Cc1c[nH]c2ccccc12)C(=O)N[C@@H](CC(C)C)C(=O)N[C@@H](CC(C)C)C(=O)N[C@@H](CCCCNC(=O)CC[C@H](NC(=O)CC[C@H](NC(=O)COCCOCCNC(=O)COCCOCCNC(=O)CC[C@H](NC(=O)CC[C@H](NC(=O)CCCCCCCCCCCCCCCCC(=O)O)C(=O)O)C(=O)O)C(=O)O)C(=O)O)C(=O)N[C@H](C(N)=O)[C@@H](C)O)C(C)C` [NN1151] (H-H[Ac4c]QGTFTSDLSKYLDLRRARDFVQWLLK([γGlu-γGlu-AEEA-AEEA-γGlu-γGlu-C18 diacid])T-NH2), for which the 50% effective concentration (EC50) at Mouse GLP-1R [1] (GLP-1R EC50, pM (95% CI) 0% plasma, 0% plasma) stood at 1.13 pM; on Mouse GLP-1R [1] (GLP-1R EC50, pM (95% CI) 100% plasma, 100% species-specific plasma) it was 161 pM; on Mouse GCGR, 60.3 pM. Besides, the IC50 at Human GCGR worked out at 0.81 nM; at Mouse GLP-1R [2] it was 1.87 nM; on Rat GLP-1R, 1.72 nM; at Human GLP-1R, 1.52 nM; at Rat GCGR, 0.27 nM. In addition, the “Basal blood glucose vs vehicle” value in the experiment on DIO mice is “improved”.
